# Assay results: patent publication US9913836B2, “Anticholinergic neuroprotective composition and methods” (priority 2012, dated 2018)
# Where “and” joins values, the source holds several entries; their conditions need not be identical. Equal values may be shown once. Entries after “also recorded” stand apart in the source; their conditions may differ.
# Columns and labels:
# [1] = solifenacin 10 mg versus placebo
# Procedure: Safety and tolerability were evaluated based on subject reports, physician observations and examinations, and the performance of standard laboratory tests.
# [2] = tested on: Tg2576 mouse model of AD; details: in vivo; cited from earlier work
# [3] = in vivo; cited from earlier work
# [4] = Birks 2009; Forette 1999; cited from earlier work
# [5] = Single-blind crossover study in healthy volunteers: maximum tolerated dose and adverse events of rivastigmine given with placebo or active trospium; type: in vivo, human
# Procedure: (§1) In this single-blind crossover study, healthy volunteers were hospitalized at a Phase I Center (Forenap, Rouffach, France) for the once daily oral administration of ascending doses of rivastigmine hydrogen tartrate (“rivastigmine”), (3 mg to a possible maximum of 24 mg in 3 mg increments as tolerated) together with placebo trospium and then with ascending amounts of rivastigmine (3 mg to a possible maximum of 24 mg as tolerated) together with active trospium. Placebo trospium or active trospium (at a fixed dose of 40 mg per day) were given orally once daily 3 hours before rivastigmine administration. Venous blood was collected for the measurement of plasma drug levels at their nominal peaks (approximately 1 hour after rivastigmine administration). Subjects were monitored clinically for 4 hours after drug administration or until all adverse events had subsided.
# [6] = Same study: peak plasma levels of rivastigmine given with placebo or active trospium; type: in vivo, human
# Procedure: as §1
# [7] = tested on: acetylcholinesterase / butyrylcholinesterase; details: cited from earlier work
# [8] = cited from earlier work
# [9] = open-label, 1.5 mg up to 6 mg twice daily, 26 weeks; no worsening of motor function; cited from earlier work
# [10] = subject (c), dose above tolerated dose
structure (smiles),measurement,setting,value
"COc1cc2c(cc1OC)C(=O)C(CC1CCN(Cc3ccccc3)CC1)C2 (racemic) [donepezil, (±)-2,3-dihydro-5,6-dimethoxy-2-[[1-(phenylmethyl)-4-piperidinyl]methyl]-1H-inden-1-one]",Increase of peak donepezil levels with combined therapy,[1],~2.6 fold
same,Adverse events at the tolerated donepezil dose given with placebo solifenacin,"individual subjects, donepezil 5 mg (a, b, c, f), 15 mg (d), 30 mg (e)","no adverse events; also recorded: severe abdominal pain, weakness, moderate anorexia, sweating and dry mouth; also recorded: moderate weakness, mild dizziness and moderate hypersalivation"
same,Adverse events at the tolerated donepezil dose given with 10 mg of solifenacin,"individual subjects, donepezil 10 mg (a, f), 15 mg (b, d), 5 mg (c), 40 mg (e)",moderate nausea and moderate dizziness; also recorded: no adverse events; also recorded: moderate abdominal pain and severe headache
same,Subjects in whom solifenacin co-treatment enabled substantially higher daily doses of donepezil,solifenacin 10 mg versus placebo,4 out of 6
same,Adverse events with 10 mg of donepezil and placebo solifenacin,[10],"severe anorexia, nausea, retching, vomiting, weakness, headache, moderate diarrhea, and mild sweating, dizziness, somnolence, hypersalivation, muscular cramps"
same,Adverse events with 10 mg of donepezil given with 10 mg of solifenacin,[10],severe nausea and retching
same,Increase of the donepezil MTD after donepezil/solifenacin combination,"the other subjects (a), (b), (e), (f)",33-300%
same,A-beta deposition in Tg2576 mice,[2],did not affect
same,Effect on A-beta and synaptic density parameters at lower doses,[2],not effective
same,Learning and memory functions in Tg2576 mice,[2],improved
same,Synaptic density in the molecular layer of the dentate gyrus,[2],significantly increased
"O=C(O[C@H]1C[C@H]2CC[C@@H](C1)[N+]21CCCC1)C(O)(c1ccccc1)c1ccccc1 [Trospium, 3-(2-hydroxy-2,2-diphenylacetoxy)-spiro[bicyclo[3.2.1]octane-8,1′-pyrrolidin]-1′-ium]",Average plasma half-life of the absorbed amount,[3],about 18 hours
"CCN(C)C(=O)Oc1cccc([C@H](C)N(C)C)c1 [rivastigmine, (S)—N-Ethyl-N-methyl-3-[1-(dimethylamino)ethyl]-phenyl carbamate]",Reported average maximum tolerated single oral dose of rivastigmine,[4],about 4.5 mg
same,Tolerated dose of rivastigmine given with placebo trospium,"[5]; individual healthy volunteers (a)-(c), once daily oral ascending doses 3 to 24 mg, placebo trospium 3 hours before",9 mg and 15 mg
same,Tolerated dose of rivastigmine given with 40 mg of trospium,"[5]; individual healthy volunteers (a)-(c), once daily oral ascending doses 3 to 24 mg, trospium 40 mg oral 3 hours before",24 mg and 18 mg
same,Adverse events at the tolerated rivastigmine dose given with placebo trospium,"[5]; individual subjects, rivastigmine 9 mg (a), 15 mg (b, c)",moderate nausea and mild somnolence; also recorded: mild dry mouth
same,Adverse events at the tolerated rivastigmine dose given with 40 mg of trospium,"[5]; individual subjects, rivastigmine 24 mg (a), 18 mg (b, c)","mild nausea as well as abdominal pain, headache and respiratory difficulty in addition to moderate anorexia; also recorded: mild dry mouth and moderate urinary difficulty"
same,Tolerated rivastigmine dose with 40 mg trospium as multiple of the maximum recommended single oral dose (6 mg),"[5]; subject (a): 4, subjects (b) and (c): 3",4 times and 3 times
same,Average peak plasma rivastigmine with trospium relative to without trospium,[6]; 88 ng/ml versus 30.7 ng/ml,2.9 times
same,Average peak plasma rivastigmine with trospium relative to literature value,[6]; 88 ng/ml versus about 12 ng/ml reported,~7.3 times
same,Average peak plasma concentration of rivastigmine given without trospium,[6]; average of 2 subjects,30.7 ng/mL
same,Peak plasma (maximum tolerated) concentration of rivastigmine given with placebo trospium,"[6]; venous blood about 1 hour after 15 mg rivastigmine, individual subjects (b), (c)",53 ng/mL and 8.3 ng/mL
same,Peak plasma (maximum tolerated) concentration of rivastigmine given with 40 mg of trospium,"[6]; venous blood about 1 hour after rivastigmine 24 mg (a) or 18 mg (b, c), individual subjects",39 ng/mL and 94 ng/mL and 131 ng/mL
same,Affinity / selectivity for acetylcholinesterase versus butyrylcholinesterase,[7],inhibits both enzymes with similar affinity
same,Benefits on cognitive and global measures relevant to dementia,[8]; patients with dementias of the Alzheimer type,"small, but statistically significant, benefits"
same,Cognitive improvement in patients with Alzheimer's disease on doubling the dose,"[8]; skin patches instead of immediate release tablets, without increasing side effects",significantly increased the amount of cognitive improvement
same,Cognitive functions in PD patients with dementia,[9],may improve the cognitive functions
